# ChEMBL document CHEMBL1136243, “Synthetic dihydropacidamycin antibiotics: a modified spectrum of activity for the pacidamycin class” (2003)
# What was measured:
# Type in all cases: functional
# [1] = test system: Mycobacterium tuberculosis; test: Antibacterial activity against Mycobacterium tuberculosis TN565 (W)
# [2] = test system: Mycobacterium tuberculosis; test: Antibacterial activity against Mycobacterium tuberculosis H37Rv
# [3] = test system: Mycobacterium tuberculosis; test: Antibacterial activity against Mycobacterium tuberculosis TN1618 (P)
# [4] = test system: Mycobacterium tuberculosis; test: Antibacterial activity against Mycobacterium tuberculosis TN913
# Pasteurella multocida = test: Antibacterial activity against Pasteurella multocida wild-type
# Pseudomonas aeruginosa = test: Antibacterial activity against Pseudomonas aeruginosa wild-type
# Escherichia coli [5] = test: Antibacterial activity against Escherichia coli wild-type
# Enterobacter cloacae = test: Antibacterial activity against Enterobacter cloacae resistant to (ERY) erythromycin;
# Acinetobacter baumannii = test: Antibacterial activity against Acinetobacter baumannii resistant to (ERY) erythromycin;
# Klebsiella pneumoniae [6] = test: Antibacterial activity against Klebsiella pneumoniae resistant to (AMP) ampicillin; (GEN) gentamicin; NAL (nalidixic acid); (TET) tetracycline
# Citrobacter freundii = test: Antibacterial activity against Citrobacter freundii resistant to (GEN) gentamicin; (ERY) erythromycin;
# Salmonella sp. = test: Antibacterial activity against Salmonella species. resistant to (AMP) ampicillin; (ERY) erythromycin
# Klebsiella pneumoniae [7] = test: Antibacterial activity against Klebsiella pneumoniae
# Citrobacter koseri = test: Antibacterial activity against Citrobacter diversus
# Escherichia coli [8] = test: Antibacterial activity against Escherichia coli resistant to (GEN) gentamicin; (RIF) rifampicin; (SM) streptomycin; (SP) spectinomycin; (SU) sulfonamides; (TET) tetracycline; (Hg)mercury
# Escherichia coli [9] = test: Antibacterial activity against Escherichia coli resistant to (AMP) ampicillin;) KAN) kanamycin; (NM) neomycin; (RIF) rifampicin; (TET) tetracycline; (Hg)mercury
# [10] = Escherichia coli, read-out: MIC
Compound,MIC [1] [µg/mL],MIC [2] [µg/mL],MIC [3] [µg/mL],MIC [4] [µg/mL],further results
CC(C)C[C@H](N)C(=O)N(C)[C@@H](C)[C@H](NC(=O)[C@H](Cc1ccccc1)NC(=O)N[C@@H](Cc1c[nH]c2ccccc12)C(=O)O)C(=O)NC[C@H]1C[C@@H](O)[C@H](n2ccc(=O)[nH]c2=O)O1,30,30,10,30,–
C[C@H](N)C(=O)N(C)[C@@H](C)[C@H](NC(=O)[C@H](Cc1ccccc1)NC(=O)N[C@@H](Cc1ccc2ccccc2c1)C(=O)O)C(=O)NC[C@H]1C[C@@H](O)[C@H](n2ccc(=O)[nH]c2=O)O1,30,30,10,30,–
CSCC[C@H](NC(=O)N[C@@H](Cc1ccc(O)cc1)C(=O)O)C(=O)N[C@H](C(=O)NC[C@H]1C[C@@H](O)[C@H](n2ccc(=O)[nH]c2=O)O1)[C@H](C)N(C)C(=O)[C@H](C)N,> 30,> 30,> 30,> 30,–
C[C@H](N)C(=O)N(C)[C@@H](C)[C@H](NC(=O)[C@H](Cc1ccc(F)cc1)NC(=O)N[C@@H](Cc1c[nH]c2ccccc12)C(=O)O)C(=O)NC[C@H]1C[C@@H](O)[C@H](n2ccc(=O)[nH]c2=O)O1,4,8,8,8,–
C[C@H](N)C(=O)N(C)[C@@H](C)[C@H](NC(=O)[C@H](Cc1ccccc1)NC(=O)N[C@@H](Cc1c[nH]c2ccccc12)C(=O)O)C(=O)NC[C@H]1CC(O)[C@H](n2ccc(=O)[nH]c2=O)O1 (some centres undefined),4,8,8,8,–
CC(C)C[C@H](NC(=O)N[C@@H](Cc1c[nH]c2ccccc12)C(=O)O)C(=O)N[C@H](C(=O)NC[C@H]1C[C@@H](O)[C@H](n2ccc(=O)[nH]c2=O)O1)[C@H](C)N(C)C(=O)CN,> 30,> 30,> 30,> 30,–
C[C@@H]([C@H](NC(=O)[C@H](Cc1ccccc1)NC(=O)N[C@@H](Cc1c[nH]c2ccccc12)C(=O)O)C(=O)NC[C@H]1C[C@@H](O)[C@H](n2ccc(=O)[nH]c2=O)O1)N(C)C(=O)CN,–,–,–,–,MIC (Pasteurella multocida): 64 µg/mL; MIC (Pseudomonas aeruginosa): 8 µg/mL; MIC (Escherichia coli [5]; [10]): 256 µg/mL
C[C@H](N)C(=O)N(C)[C@@H](C)[C@H](NC(=O)[C@H](Cc1ccc(F)cc1)NC(=O)N[C@@H](Cc1ccc(O)cc1)C(=O)O)C(=O)NC[C@H]1C[C@@H](O)[C@H](n2ccc(=O)[nH]c2=O)O1,8,10,10,8,MIC (Enterobacter cloacae): ≥ 64 µg/mL; MIC (Acinetobacter baumannii): ≥ 64 µg/mL; MIC (Klebsiella pneumoniae [6]): ≥ 64 µg/mL; MIC (Citrobacter freundii): 1 µg/mL; MIC (Salmonella sp.): 8 µg/mL; MIC (Klebsiella pneumoniae [7]): 32 µg/mL; MIC (Citrobacter koseri): 16 µg/mL; MIC (Pasteurella multocida): 512 µg/mL; MIC (Pseudomonas aeruginosa): 64 µg/mL; MIC (Escherichia coli [5]): 4 µg/mL; MIC (Escherichia coli [5]; [10]): 4 µg/mL; MIC (Escherichia coli [8]): 8 µg/mL; MIC (Escherichia coli [9]): 8 µg/mL
C[C@H](N)C(=O)N(C)[C@@H](C)[C@H](NC(=O)[C@H](Cc1ccc(-c2ccccc2)cc1)NC(=O)N[C@@H](Cc1c[nH]c2ccccc12)C(=O)O)C(=O)NC[C@H]1C[C@@H](O)[C@H](n2ccc(=O)[nH]c2=O)O1,4,8,10,4,–
C[C@H](N)C(=O)N(C)[C@@H](C)[C@H](NC(=O)[C@H](Cc1ccc(C(F)(F)F)cc1)NC(=O)N[C@@H](Cc1c[nH]c2ccccc12)C(=O)O)C(=O)NC[C@H]1C[C@@H](O)[C@H](n2ccc(=O)[nH]c2=O)O1,4,8,8,4,–
C[C@H](NC(=O)N[C@@H](Cc1c[nH]c2ccccc12)C(=O)O)C(=O)N[C@H](C(=O)NC[C@H]1C[C@@H](O)[C@H](n2ccc(=O)[nH]c2=O)O1)[C@H](C)N(C)C(=O)[C@@H](N)Cc1ccc(O)cc1 [PACIDAMYCIN],> 30,> 30,> 30,> 30,MIC (Pasteurella multocida): 128 µg/mL; MIC (Pseudomonas aeruginosa): 16 µg/mL; MIC (Escherichia coli [5]; [10]): 256 µg/mL
